In ChEMBL document CHEMBL1143037, “Discovery of +(2-{4-[2-(5,6,7,8-tetrahydro-1,8-naphthyridin-2-yl)ethoxy]phenyl}-cyclopropyl)acetic acid as potent and selective alphavbeta3 inhibitor: design, synthesis, and optimization” (Bioorg Med Chem, 2007):

Tests used:
Integrin alpha-V/beta-3 [1] = target: T1, Integrin alpha-V/beta-3 (Homo sapiens, UniProt P05106+P06756); test: Inhibition of human integrin alpha-v-beta-3 receptor expressed in HEK293 cells; assay type: cell-based
[2] = (§1) Cmax in Sprague-Dawley rat; assay type: ADME, organism-based; conditions: Sprague-Dawley, in vivo
Integrin alpha-V/beta-6 = Integrin alpha-V/beta-6 (Homo sapiens, UniProt P06756+P18564); test: Inhibition of integrin alpha-beta-6 receptor expressed in HT29 cells; assay type: cell-based, HT-29
Chain of Integrin alpha-V/beta-6 (P06756 31-889 limits assumed): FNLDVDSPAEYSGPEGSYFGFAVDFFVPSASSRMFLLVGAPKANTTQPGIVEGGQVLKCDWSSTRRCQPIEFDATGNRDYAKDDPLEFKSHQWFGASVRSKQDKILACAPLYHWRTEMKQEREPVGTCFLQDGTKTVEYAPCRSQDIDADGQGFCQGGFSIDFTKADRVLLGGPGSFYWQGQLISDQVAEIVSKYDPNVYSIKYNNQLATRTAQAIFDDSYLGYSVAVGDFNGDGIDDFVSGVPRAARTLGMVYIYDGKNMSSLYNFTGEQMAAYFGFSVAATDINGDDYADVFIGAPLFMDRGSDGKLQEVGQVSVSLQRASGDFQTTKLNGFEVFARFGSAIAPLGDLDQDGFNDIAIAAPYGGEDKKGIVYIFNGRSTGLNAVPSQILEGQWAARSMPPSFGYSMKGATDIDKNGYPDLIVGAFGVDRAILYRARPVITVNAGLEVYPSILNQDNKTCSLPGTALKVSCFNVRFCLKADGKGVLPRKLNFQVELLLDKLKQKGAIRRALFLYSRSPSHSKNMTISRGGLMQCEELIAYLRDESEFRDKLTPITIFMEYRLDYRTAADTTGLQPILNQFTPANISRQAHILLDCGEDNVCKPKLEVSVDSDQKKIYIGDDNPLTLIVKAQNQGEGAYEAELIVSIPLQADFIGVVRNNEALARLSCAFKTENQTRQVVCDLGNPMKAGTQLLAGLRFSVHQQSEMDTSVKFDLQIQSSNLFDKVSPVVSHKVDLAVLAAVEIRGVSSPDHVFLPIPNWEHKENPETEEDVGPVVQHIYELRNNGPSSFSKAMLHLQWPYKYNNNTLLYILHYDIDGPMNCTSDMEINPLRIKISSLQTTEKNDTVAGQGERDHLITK
Chain of Integrin alpha-V/beta-6 (P06756 891-1048 limits assumed): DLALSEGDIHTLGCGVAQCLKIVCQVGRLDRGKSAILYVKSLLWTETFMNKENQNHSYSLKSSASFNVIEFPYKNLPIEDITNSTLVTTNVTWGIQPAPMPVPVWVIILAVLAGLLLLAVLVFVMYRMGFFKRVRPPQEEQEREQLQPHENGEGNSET
Chain of Integrin alpha-V/beta-6 (P18564 22-788 limits assumed): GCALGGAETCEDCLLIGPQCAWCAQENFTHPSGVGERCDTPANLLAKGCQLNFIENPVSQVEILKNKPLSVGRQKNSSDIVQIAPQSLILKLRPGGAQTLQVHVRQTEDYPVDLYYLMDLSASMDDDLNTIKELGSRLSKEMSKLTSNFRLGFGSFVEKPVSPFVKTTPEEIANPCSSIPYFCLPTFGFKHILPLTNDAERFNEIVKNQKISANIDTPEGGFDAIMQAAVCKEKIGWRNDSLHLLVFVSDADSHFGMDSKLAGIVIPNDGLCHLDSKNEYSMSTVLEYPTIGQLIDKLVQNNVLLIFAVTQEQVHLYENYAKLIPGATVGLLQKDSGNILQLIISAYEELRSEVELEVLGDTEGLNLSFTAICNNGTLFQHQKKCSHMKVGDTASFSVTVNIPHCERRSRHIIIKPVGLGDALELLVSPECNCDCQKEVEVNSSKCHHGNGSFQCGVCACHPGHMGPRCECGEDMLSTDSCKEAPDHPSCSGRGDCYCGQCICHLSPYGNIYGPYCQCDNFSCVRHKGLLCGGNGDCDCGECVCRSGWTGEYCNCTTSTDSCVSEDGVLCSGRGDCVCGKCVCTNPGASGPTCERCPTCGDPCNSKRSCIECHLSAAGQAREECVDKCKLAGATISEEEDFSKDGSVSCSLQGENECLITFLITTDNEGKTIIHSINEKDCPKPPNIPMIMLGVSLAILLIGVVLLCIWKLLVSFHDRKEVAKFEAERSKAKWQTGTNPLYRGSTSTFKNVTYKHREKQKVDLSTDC

[3] = (§2) Volume of distribution in Sprague-Dawley rat; assay type: ADME, organism-based; conditions: Sprague-Dawley, in vivo, read-out: Vdss
[4] = Clearance in Sprague-Dawley rat; assay type: ADME, organism-based; conditions: in vivo
[5] = (§3) Bioavailability in Sprague-Dawley rat; assay type: ADME, organism-based; conditions: Sprague-Dawley, in vivo
Integrin alpha-V/beta-3 [6] = target: T1, Integrin alpha-V/beta-3; test: Inhibition of human integrin alpha-v-beta-3 receptor by solid phase receptor assay; assay type: protein-complex assay
[7] = (§4) Half life in Sprague-Dawley rat; assay type: ADME, organism-based; conditions: Sprague-Dawley, in vivo
[8] = AUC in Swiss-Webster mouse at 20 mg/kg, po; assay type: ADME, organism-based; design: dose 20 mg/kg, route oral; conditions: plasma
Integrin alpha-V/beta-1 = Integrin alpha-V/beta-1 (Homo sapiens, UniProt P05556+P06756); test: Inhibition of integrin alphavbeta1 receptor expressed in HEK293 cells; assay type: cell-based
Chain of Integrin alpha-V/beta-1 (P05556 21-798 limits assumed): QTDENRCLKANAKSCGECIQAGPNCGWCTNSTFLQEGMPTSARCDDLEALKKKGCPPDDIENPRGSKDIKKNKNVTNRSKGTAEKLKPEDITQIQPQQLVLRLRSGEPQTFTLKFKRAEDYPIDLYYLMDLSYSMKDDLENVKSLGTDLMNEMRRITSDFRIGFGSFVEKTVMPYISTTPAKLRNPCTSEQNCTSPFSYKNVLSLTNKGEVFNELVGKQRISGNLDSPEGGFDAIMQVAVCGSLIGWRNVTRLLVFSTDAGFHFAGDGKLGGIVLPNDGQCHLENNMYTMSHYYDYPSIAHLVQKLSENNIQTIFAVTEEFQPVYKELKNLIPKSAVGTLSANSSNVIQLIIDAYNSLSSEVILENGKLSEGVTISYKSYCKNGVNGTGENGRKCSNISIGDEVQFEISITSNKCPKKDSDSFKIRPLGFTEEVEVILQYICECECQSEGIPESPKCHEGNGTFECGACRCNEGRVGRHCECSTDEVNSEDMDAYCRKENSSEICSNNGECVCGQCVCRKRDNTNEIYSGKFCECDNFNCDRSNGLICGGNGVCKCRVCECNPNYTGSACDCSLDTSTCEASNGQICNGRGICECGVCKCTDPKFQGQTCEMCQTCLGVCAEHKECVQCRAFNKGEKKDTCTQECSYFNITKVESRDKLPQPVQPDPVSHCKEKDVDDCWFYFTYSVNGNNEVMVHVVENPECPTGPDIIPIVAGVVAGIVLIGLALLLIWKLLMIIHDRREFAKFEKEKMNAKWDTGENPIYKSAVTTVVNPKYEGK
Chain of Integrin alpha-V/beta-1 (P06756 31-889 limits assumed): as the sequence (P06756 31-889 limits assumed) above
Chain of Integrin alpha-V/beta-1 (P06756 891-1048 limits assumed): as the sequence (P06756 891-1048 limits assumed) above

[9] = Half life in Swiss-Webster mouse at 2 mg/kg; assay type: ADME, organism-based; design: dose 2 mg/kg; conditions: in vivo
[10] = AUC in Swiss-Webster mouse at 20 mg/kg, iv; assay type: ADME, organism-based; design: dose 20 mg/kg, route intravenous; conditions: plasma
[11] = Bioavailability in Swiss-Webster mouse at 2 mg/kg; assay type: ADME, organism-based; conditions: in vivo
Integrin alpha-V/beta-5 = Integrin alpha-V/beta-5 (Homo sapiens, UniProt P06756+P18084); test: Inhibition of integrin alpha-v-beta-5 receptor expressed in HEK293 cells; assay type: cell-based
Chain of Integrin alpha-V/beta-5 (P06756 31-889 limits assumed): as the sequence (P06756 31-889 limits assumed) above
Chain of Integrin alpha-V/beta-5 (P06756 891-1048 limits assumed): as the sequence (P06756 891-1048 limits assumed) above
Chain of Integrin alpha-V/beta-5 (P18084 24-799 limits assumed): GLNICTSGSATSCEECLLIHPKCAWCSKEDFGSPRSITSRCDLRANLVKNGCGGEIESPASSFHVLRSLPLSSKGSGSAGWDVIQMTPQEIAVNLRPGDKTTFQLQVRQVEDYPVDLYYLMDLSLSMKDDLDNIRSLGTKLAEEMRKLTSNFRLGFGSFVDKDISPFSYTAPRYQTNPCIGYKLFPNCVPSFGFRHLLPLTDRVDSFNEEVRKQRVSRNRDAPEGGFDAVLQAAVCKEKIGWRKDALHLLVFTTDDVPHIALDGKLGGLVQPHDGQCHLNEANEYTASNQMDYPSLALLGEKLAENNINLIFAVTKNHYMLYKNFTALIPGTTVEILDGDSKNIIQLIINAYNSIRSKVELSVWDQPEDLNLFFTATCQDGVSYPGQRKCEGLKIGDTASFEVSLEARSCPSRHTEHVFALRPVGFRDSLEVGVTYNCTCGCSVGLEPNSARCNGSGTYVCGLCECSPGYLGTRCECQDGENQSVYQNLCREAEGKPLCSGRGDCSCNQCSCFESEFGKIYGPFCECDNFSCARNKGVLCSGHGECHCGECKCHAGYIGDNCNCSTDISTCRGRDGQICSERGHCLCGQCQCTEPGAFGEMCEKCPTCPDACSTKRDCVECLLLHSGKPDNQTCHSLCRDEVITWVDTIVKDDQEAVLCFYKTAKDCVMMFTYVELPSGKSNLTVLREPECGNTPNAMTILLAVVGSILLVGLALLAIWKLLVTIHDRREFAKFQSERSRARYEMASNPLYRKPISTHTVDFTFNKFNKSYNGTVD

[12] = Bioavailability in Swiss-Webster mouse at 20 mg/kg; assay type: ADME, organism-based; conditions: in vivo
[13] = Half life in Swiss-Webster mouse at 20 mg/kg; assay type: ADME, organism-based; design: dose 20 mg/kg; conditions: in vivo
Rattus norvegicus [14] = species on record: Rattus norvegicus; test: as §2; assay type: ADME, organism-based; conditions: in vivo
Rattus norvegicus [15] = species on record: Rattus norvegicus; test: as §3; assay type: ADME, organism-based; conditions: in vivo
Rattus norvegicus [16] = species on record: Rattus norvegicus; test: as §4; assay type: ADME, organism-based; conditions: in vivo
Rattus norvegicus [17] = species on record: Rattus norvegicus; test: as §1; assay type: ADME, organism-based; conditions: in vivo

T1 sequence (P05106 27-788 limits assumed): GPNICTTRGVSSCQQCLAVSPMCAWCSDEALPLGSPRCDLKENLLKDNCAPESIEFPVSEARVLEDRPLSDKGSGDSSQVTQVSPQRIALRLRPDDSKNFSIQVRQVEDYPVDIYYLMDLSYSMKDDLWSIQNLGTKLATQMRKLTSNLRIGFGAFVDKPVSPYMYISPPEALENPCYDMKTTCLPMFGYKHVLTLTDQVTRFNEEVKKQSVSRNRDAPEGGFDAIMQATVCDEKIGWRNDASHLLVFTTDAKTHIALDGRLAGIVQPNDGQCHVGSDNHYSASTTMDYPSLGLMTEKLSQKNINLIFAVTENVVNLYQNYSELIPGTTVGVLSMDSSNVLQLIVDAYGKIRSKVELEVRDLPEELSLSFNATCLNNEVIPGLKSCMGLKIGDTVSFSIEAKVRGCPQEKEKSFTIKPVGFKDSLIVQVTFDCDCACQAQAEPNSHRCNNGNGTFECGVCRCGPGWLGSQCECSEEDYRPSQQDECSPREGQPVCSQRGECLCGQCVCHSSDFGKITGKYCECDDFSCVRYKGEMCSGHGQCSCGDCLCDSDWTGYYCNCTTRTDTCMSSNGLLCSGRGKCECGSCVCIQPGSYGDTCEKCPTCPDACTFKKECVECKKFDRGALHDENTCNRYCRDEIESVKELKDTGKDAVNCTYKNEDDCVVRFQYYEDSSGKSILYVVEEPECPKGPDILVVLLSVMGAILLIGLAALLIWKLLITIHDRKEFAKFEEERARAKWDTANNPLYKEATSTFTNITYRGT
T1 sequence (P06756 31-889 limits assumed): as the sequence (P06756 31-889 limits assumed) above
T1 sequence (P06756 891-1048 limits assumed): as the sequence (P06756 891-1048 limits assumed) above

| Compound | IC50 (Integrin alpha-V/beta-3 [1]) [nM] | IC50 (Integrin alpha-V/beta-6) [nM] | IC50 (Integrin alpha-V/beta-3 [6]) [nM] | IC50 (Integrin alpha-V/beta-1) [nM] | IC50 (Integrin alpha-V/beta-5) [nM] | further results |
| --- | --- | --- | --- | --- | --- | --- |
| O=C(O)CC1CC1c1ccc(OCCc2ccc3c(n2)NCCC3)c(O)c1 (stereo unspecified) | 0.9 | 9800 | 1 | – | 3 | – |
| O=C(O)CC1CC1c1ccc(OCCc2ccc3c(n2)NCCC3)nc1 (stereo unspecified) | – | 10000 | 1900 | – | – | – |
| O=C(O)CC1CC1c1ccc(OCCc2ccc3c(n2)NCCC3)c(F)c1 (stereo unspecified) | 11 | 3530 | 0.5 | 11 | 3 | Cmax [2]: 15000 ng/mL; Vd [3]: 0.864 L/kg; clearance [4]: 5.8 mL/min/kg; bioavailability [5]: 100%; half-life [7]: 3.7 h |
| CNc1cccc(CCOc2ccc(C3CC3CC(=O)O)cc2)n1 (stereo unspecified) | 7 | 20000 | 7.4 | – | – | – |
| CC(CC(=O)O)Cc1ccc(OCCCNc2ccccn2)cc1 (stereo unspecified) | 51 | 4360 | 21 | 102 | 33 | AUC [8]: 195000 ng·h/mL; AUC [10]: 106000 ng·h/mL; bioavailability [12]: 92%; half-life [13]: 4.1 h |
| O=C(O)CC(Cc1ccc(OCCCNc2ccccn2)cc1)c1ccccc1 (stereo unspecified) | 29 | 19800 | 8 | 96 | 20 | AUC [8]: 2800 ng·h/mL; half-life [9]: 4.4 h; AUC [10]: 2300 ng·h/mL; bioavailability [11]: 100% |
| O=C(O)CC1C(c2ccc(OCCc3ccc4c(n3)NCCC4)cc2)C1(Br)Br (stereo unspecified) | 1.7 | 4330 | 3.3 | – | 20 | – |
| O=C(O)CC1CC1c1ccc(OCCc2ccc3c(n2)NCCC3)c(F)c1F (stereo unspecified) | 10 | 10000 | 2 | – | – | – |
| CC1(C)[C@H](c2ccc(OCCc3ccc4c(n3)NCCC4)cc2)[C@@H]1CC(=O)O (relative stereo) | – | – | 12 | – | – | – |
| CC1(C)C(CC(=O)O)C1c1ccc(OCCc2ccc3c(n2)NCCC3)cc1 (single isomer, unassigned; (-)) | – | 10000 | 42 | – | – | – |
| O=C(O)CC1CC1c1ccc(OCCc2ccc3c(n2)NCCC3)cc1 (single isomer, unassigned; (-)) | 16 | 10000 | 16 | 297 | 33 | – |
| O=C(O)CC1CC1c1ccc(OCCc2ccc3c(n2)NCCC3)cc1 (stereo in doubt; 7) | 3 | – | 5 | 64 | 4.4 | AUC [8]: 398000 ng·h/mL; half-life [9]: 1.6 h; AUC [10]: 378000 ng·h/mL; bioavailability [11]: 62%; Cmax [2]: 24500 ng/mL; Vdss (Rattus norvegicus [14]): 0.221 L/kg; F (Rattus norvegicus [15]): 62%; t1/2 (Rattus norvegicus [16]): 1.6 h |
| CC1(C)C(CC(=O)O)C1c1ccc(OCCc2ccc3c(n2)NCCC3)cc1 (stereo in doubt; 83) | 1.5 | 10000 | 1.3 | – | – | Cmax (Rattus norvegicus [17]): 23500 ng/mL; Vdss (Rattus norvegicus [14]): 0.419 L/kg; t1/2 (Rattus norvegicus [16]): 3.5 h |
| O=C(O)CC1CC1c1ccc(OCCc2ccc3c(n2)NCCC3)cc1 (stereo in doubt; (+)7) | 0.6 | 2570 | 0.6 | 6 | 1.4 | Cmax (Rattus norvegicus [17]): 14800 ng/mL; Vdss (Rattus norvegicus [14]): 0.915 L/kg; F (Rattus norvegicus [15]): 100%; t1/2 (Rattus norvegicus [16]): 4 h |
| CC1(C)C(CC(=O)O)C1c1ccc(OCCc2ccc3c(n2)NCCC3)cc1 (stereo in doubt; (+)83) | 0.4 | 1790 | 0.4 | – | 4 | Cmax [2]: 33000 ng/mL; Vd [3]: 0.276 L/kg; clearance [4]: 0.9 mL/min/kg; bioavailability [5]: 100%; half-life [7]: 5.1 h |

The remaining compounds from weak to strong by IC50 (Integrin alpha-V/beta-3 [6]), led by results:

| IC50 (Integrin alpha-V/beta-3 [1]) [nM] | IC50 (Integrin alpha-V/beta-6) [nM] | IC50 (Integrin alpha-V/beta-3 [6]) [nM] | IC50 (Integrin alpha-V/beta-1) [nM] | IC50 (Integrin alpha-V/beta-5) [nM] | Compound | further results |
| --- | --- | --- | --- | --- | --- | --- |
| – | – | 2700 | – | – | O=C(O)CC1(c2ccccc2)CC1c1ccc(OCCc2ccc3c(n2)NCCC3)cc1 (stereo unspecified) | – |
| – | – | 1000 | – | – | O=C(O)CCC1CC1c1ccc(OCc2ccc3c(n2)NCCC3)cc1 (stereo unspecified) | – |
| 525 | – | 954 | – | – | O=C(O)CCC1CC1c1cccc(OCCc2ccc3c(n2)NCCC3)c1 (stereo unspecified) | – |
| 205 | 9600 | 776 | – | – | O=C(O)CC1CC1c1cccc(OCCc2ccc3c(n2)NCCC3)c1 (stereo unspecified) | – |
| 156 | – | 472 | – | – | O=C(O)CCC1CC1c1ccc(OCCc2ccc3c(n2)NCCC3)nc1 (stereo unspecified) | – |
| – | – | 36 | – | – | CC1(c2ccc(OCCc3ccc4c(n3)NCCC4)cc2)CC1CC(=O)O (stereo unspecified) | – |
| 42 | – | 19 | 234 | – | O=C(O)CC1CC1c1ccc(OCCCNc2ccccn2)cc1 (stereo unspecified) | AUC [8]: 18300 ng·h/mL; half-life [9]: 2.3 h; AUC [10]: 14200 ng·h/mL; bioavailability [11]: 79% |
| 1.5 | 4500 | 1.6 | – | – | O=C(O)CC1C(c2ccc(OCCc3ccc4c(n3)NCCC4)cc2)C1(Cl)Cl (stereo unspecified) | Cmax [2]: 17400 ng/mL; Vd [3]: 0.493 L/kg; clearance [4]: 2.2 mL/min/kg; bioavailability [5]: 100%; half-life [7]: 4 h |
| 2 | 25000 | 0.5 | 28 | – | O=C(O)CC(Cc1ccc(OCCCNc2ccccn2)cc1)c1cccnc1 (stereo unspecified) | AUC [8]: 300 ng·h/mL; half-life [9]: 1.7 h; AUC [10]: 200 ng·h/mL; bioavailability [11]: 100% |
